Experimental data taken from US20230096766A1, “AMINO ACID HAVING FUNCTIONAL GROUP CAPABLE OF INTERMOLECULAR HYDROGEN BONDING, PEPTIDE COMPOUND CONTAINING SAME AND METHOD FOR PRODUCTION THEREOF” (Chugai Seiyaku Kabushiki Kaisha, priority 2018, published 2023).
*1 amine or outer side, *2 acyl side, *3 side chain or, on linkers, in order; H or OH if unused. Where a SMILES comes first, the peptide text is derived from it. Bridges are numbered along the chain shown (N, C = ends). [ ]: non-standard residue; d: D form. The star is where a group is joined. ξ: configuration not given here. Phe(4-CF3) = N[C@@H](Cc1ccc(C(F)(F)F)cc1)C(=O)O; NMePhe(3-Cl) = CN[C@@H](Cc1cccc(Cl)c1)C(=O)O; ξGln(SO2Me) = CS(=O)(=O)NC(=O)CCC(N)C(=O)O; Tyr(3-F) = N[C@@H](Cc1ccc(O)c(F)c1)C(=O)O; NMehPhe = CN[C@@H](CCc1ccccc1)C(=O)O; NMeF = CN[C@@H](Cc1ccccc1)C(=O)O; NMeGABA = CN(CCCC(=O)[*:2])[*:1]; NMeI = CC[C@H](C)[C@H](NC)C(=O)O; NMeβAla = CN(CCC(=O)[*:2])[*:1]; Butyl(3-Me,3-OH) = CC(C)(O)CC*; CH2CONHtBu = CC(C)(C)NC(=O)C*; NMeL = CN[C@@H](CC(C)C)C(=O)O; Propyl(2R-OH) = C[C@@H](O)C*; NMeV = CN[C@H](C(=O)O)C(C)C; NMeA = CN[C@@H](C)C(=O)O; Piperidide = C1CCN(*)CC1; NBuGly = CCCCNCC(=O)O; Isopentyl = CC(C)CC*; NPrGly = CCCNCC(=O)O; X3 = C[C@H](O)C*; Sar = CNCC(=O)O

Assay: in vitro
Conditions: human

Compound | Papp (Caco-2, Caco-2 (cm/sec)) [×10⁻⁶ cm/s] | further results
CCCCN1CC(=O)N(C)[C@@H](C(C)C)C(=O)N[C@H](C(=O)N2CCCCC2)CC(=O)N(C)[C@@H](CC(C)C)C(=O)NC(CCC(=O)NS(C)(=O)=O)C(=O)N(C)[C@@H](CC(C)C)C(=O)N(C)[C@@H](Cc2ccccc2)C(=O)N[C@@H](CC(C)C)C(=O)N(C)[C@@H](Cc2ccccc2)C(=O)N(C)[C@@H](CC(C)C)C(=O)N[C@@H]([C@@H](C)O)C1=O (stereo partly drawn) [pd62] ([NMeL][ξGln(SO2Me)][NMeL][NMeF]L[NMeF][NMeL]T[NBuGly][NMeV]D-Piperidide; lactam N-11) |  | Papp (Caco-2, Caco-2): < 0.13 ×10⁻⁶ cm/s
CCCN1CC(=O)N(C)[C@@H](Cc2ccccc2)C(=O)N(C)[C@@H](CC(C)C)C(=O)N[C@@H](COCCC(C)C)C(=O)N(C)[C@@H](CC(C)C)C(=O)N[C@H](C(=O)N2CCCCC2)CC(=O)N(C)CC(=O)N(C)[C@@H](Cc2cccc(Cl)c2)C(=O)N[C@@H](COC[C@H](C)O)C(=O)N(C)[C@@H](CC(C)C)C(=O)N[C@@H]([C@@H](C)O)C1=O [AP67] ([Sar][NMePhe(3-Cl)]S(X3)[NMeL]T[NPrGly][NMeF][NMeL]S(Isopentyl)[NMeL]D-Piperidide; lactam N-11) | 0.71 | 
CC(C)C[C@@H]1NC(=O)[C@H](Cc2ccccc2)N(C)C(=O)[C@H](CC(C)C)N(C)C(=O)CCN(C)C(=O)C[C@@H](C(=O)N2CCCCC2)NC(=O)[C@H](CC(C)C)N(C)C(=O)[C@H](Cc2ccccc2)N(C)C(=O)[C@H]([C@@H](C)O)NC(=O)[C@H](Cc2ccccc2)N(C)C1=O [pd207] ([NMeβAla][NMeL][NMeF]L[NMeF]T[NMeF][NMeL]D-Piperidide; lactam N-9) | 1.7 | 
CC(C)C[C@@H]1NC(=O)[C@H](Cc2ccccc2)N(C)C(=O)[C@H](CC(C)C)N(C)C(=O)[C@H](COCCC(C)(C)O)NC(=O)[C@H](C)N(C)C(=O)C[C@@H](C(=O)N2CCCCC2)NC(=O)[C@H](CC(C)C)N(C)C(=O)CN(C)C(=O)[C@H]([C@@H](C)O)NC(=O)[C@H](CC(C)C)N(C)C(=O)[C@H](CCc2ccccc2)N(C)C1=O [AP55] ([NMeA]S(Butyl(3-Me,3-OH))[NMeL][NMeF]L[NMehPhe][NMeL]T[Sar][NMeL]D-Piperidide; lactam N-11) | 1.3 | 
CC[C@H](C)[C@@H]1NC(=O)[C@H](CC(C)C)N(C)C(=O)CCCN(C)C(=O)C[C@@H](C(=O)N2CCCCC2)NC(=O)[C@H](CC(C)C)N(C)C(=O)[C@H](CC(C)C)N(C)C(=O)[C@H]([C@@H](C)O)NC(=O)[C@H](CC(C)C)N(C)C(=O)[C@H](COC[C@@H](C)O)NC(=O)[C@H](Cc2cccc(Cl)c2)N(C)C(=O)[C@H](Cc2ccccc2)N(C)C1=O [AP74] ([NMeGABA][NMeL]I[NMeF][NMePhe(3-Cl)]S(Propyl(2R-OH))[NMeL]T[NMeL][NMeL]D-Piperidide; lactam N-11) | 0.31 | 
CCCCN1CC(=O)N(C)[C@@H](CC(C)C)C(=O)N[C@@H](CCC(=O)NC)C(=O)N(C)[C@@H](Cc2ccccc2)C(=O)N(C)[C@@H]([C@@H](C)CC)C(=O)N[C@H](C(=O)N2CCCCC2)CC(=O)N[C@H](CC(C)C)C(=O)N(C)[C@@H](CC(C)C)C(=O)N[C@@H](Cc2ccc(C(F)(F)F)cc2)C(=O)N(C)[C@@H](CC(C)C)C(=O)N[C@@H]([C@@H](C)O)C1=O [Compound J02] ([dL][NMeL][Phe(4-CF3)][NMeL]T[NBuGly][NMeL]E(NHMe)[NMeF][NMeI]D-Piperidide; lactam N-11) |  | Papp (Caco-2, Caco-2 (membrane permeability)): 0.004 ×10⁻⁶ cm/s
CC(C)C[C@@H]1NC(=O)[C@H](CC(C)C)N(C)C(=O)[C@H](C)N(C)C(=O)[C@@H](C(C)C)NC(=O)C[C@@H](C(=O)N2CCCCC2)NC(=O)[C@H]([C@@H](C)O)NC(=O)[C@H](C)N(C)C(=O)[C@H](C)N(C)C(=O)[C@H](CC(C)C)N(C)C(=O)[C@H](Cc2ccc(O)c(F)c2)NC(=O)[C@H](Cc2ccccc2)N(C)C1=O [pd113] ([dV][NMeA][NMeL]L[NMeF][Tyr(3-F)][NMeL][NMeA][NMeA]TD-Piperidide; lactam N-11) | 0.029 | 
CC[C@H](C)[C@@H]1NC(=O)[C@H](Cc2ccccc2)N(C)C(=O)[C@H](C)N(C)C(=O)[C@H](CC(C)C)N(C)C(=O)[C@H](Cc2ccccc2)N(C)C(=O)CCN(C)C(=O)C[C@@H](C(=O)N(C)[C@@H](Cc2ccccc2)C(=O)N(C)[C@@H](Cc2ccccc2)C(=O)N[C@@H](C)C(=O)N2CCCCC2)NC(=O)[C@H]([C@@H](C)O)NC(=O)[C@H](CC(C)C)N(C)C(=O)[C@H](CC(C)C)N(C)C1=O [pd239] ([NMeβAla][NMeF][NMeL][NMeA][NMeF]I[NMeL][NMeL]TD[NMeF][NMeF]A-Piperidide; lactam N-10) |  | Papp (Caco-2, Caco-2 (cm/sec) Papp): 0.065 ×10⁻⁶ cm/s
CC(C)C[C@@H]1NC(=O)[C@H](Cc2ccccc2)N(C)C(=O)[C@H](CC(C)C)N(C)C(=O)[C@H](COCC(=O)NC(C)(C)C)NC(=O)[C@H](CC(C)C)N(C)C(=O)C[C@@H](C(=O)N2CCCCC2)NC(=O)[C@H](C)N(C)C(=O)CN(C)C(=O)[C@H]([C@@H](C)O)NC(=O)[C@H](CC(C)C)N(C)C(=O)[C@H](CCc2ccccc2)N(C)C1=O [AP14] ([NMeL]S(CH2CONHtBu)[NMeL][NMeF]L[NMehPhe][NMeL]T[Sar][NMeA]D-Piperidide; lactam N-11) | 0.39 | 
